{"source": "paper PMC7078479", "about": "“Sulfamoyl Heteroarylcarboxylic Acids as Promising Metallo-β-Lactamase Inhibitors for Controlling Bacterial Carbapenem Resistance” (mBio, 2020)", "key": {"[1]": {"system": "TLA-3", "test": "Serine β-lactamase inhibition, nitrocefin hydrolysis by TLA-3", "type": "biochemical", "details": "nitrocefin 100 μM", "method": "(§1) The serine–β-lactamases (1 nM) TLA-3, CMY-2, and OXA-48 were mixed with SFC in 100 mM phosphate buffer (pH 7.0) and incubated for 5 min at 30°C. Nitrocefin was added to reach a concentration of 100 μM, and the velocity of nitrocefin hydrolysis was monitored at 482 nm. Avibactam (MedKoo Bioscience, Morrisville, NC) was used as an inhibitor for serine–β-lactamases. The inhibitory effect of SFC against ACE was evaluated using ACE Kit-WST (Dojindo Laboratories, Kumamoto, Japan). The residual ACE activity was calculated as described in the manufacturer’s protocol as follows: [1 − (Acontrol − Asample)/(Acontrol − Abackground)] × 100. EDTA solution (Nippon Gene, Tokyo, Japan) was used as an ACE inhibitor."}, "[2]": {"system": "SFH-1", "test": "In vitro inhibition assay, IPM hydrolysis by SFH-1", "type": "biochemical", "details": "even in the presence of 100 μM SFC", "method": "(§2) MBL (10 nM) was mixed with the inhibitors and incubated for 5 min at 30°C. IPM was added to reach a concentration of 150 μM, and the velocity of IPM hydrolysis was monitored at 298 nm. The assay was performed at 30°C using 10 mM HEPES (pH 7.5) buffer containing 200 mM NaCl and 50 μg/ml bovine serum albumin (BSA) for IMP-1, NDM-1, VIM-2, and SMB-1. For SFH-1 and L1, another 10 mM HEPES (pH 7.5) buffer containing 200 mM NaCl, 20 μM ZnSO4, and 50 μg/ml BSA was used."}, "[3]": {"system": "E. coli", "test": "Growth inhibition by inhibitor alone", "type": "cell-based, Escherichia coli", "details": "at least at 128 μg/ml", "method": "(§3) MICs were determined via the microdilution method according to the CLSI guidelines ([38]). In brief, 5 × 10^4 bacterial cells were inoculated in 100 μl of cation-adjusted Mueller-Hinton broth (Becton, Dickinson and Company, Franklin Lakes, NJ) containing the β-lactams and appropriately diluted inhibitors. The final concentration of DMSO was maintained at 2% in the assays. The tested plates were then incubated at 35°C for 16 to 20 h. The MIC value was determined as the lowest concentration of tested β-lactams where no bacterial growth was visibly observed. The optical density at 600 nm (OD600) value was measured using a plate reader for drawing the heat maps. The FIC index value was calculated using the following equation: FIC index=MIC of β-lactam with inhibitor/MIC of β-lactam alone+MIC of inhibitor with β-lactam/MIC of inhibitor alone"}, "[4]": {"system": "Pseudomonas aeruginosa clinical isolates", "test": "Susceptibility testing, 17 P. aeruginosa clinical isolates", "type": "cell-based", "method": "as §3"}, "[5]": {"system": "E. coli DH5α/pBC-NDM-1", "test": "Susceptibility and checkerboard testing, NDM-1-producing E. coli", "type": "cell-based, Escherichia coli", "details": "for MIC: Escherichia coli", "method": "as §3\n(§4) Unless noted otherwise, the FIC index was defined as the lowest value among all obtained values. The synergistic effect was defined as the effect observed when the FIC index value was ≤0.5."}, "[6]": {"system": "HeLa cells", "test": "Toxicity assay in HeLa cells (CellTiter 96 AQueous)", "type": "cell-based", "details": "24 h exposure, cell proliferation assay", "method": "HeLa cells were seeded at 5,000 cells per well in 96-well plates and cultured in Dulbecco’s modified Eagle’s medium (DMEM) (Wako Pure Chemical Industries, Osaka, Japan). After incubation for 24 h at 37°C with 5% CO2, staurosporine (Sigma-Aldrich, St. Louis, MO) and SHCs were added to each well (final DMSO concentration was 1%), after which the plates were incubated for another 24 h. Twenty microliters of tetrazolium solution, obtained from a CellTiter 96 AQueous one-solution cell proliferation assay kit (Promega, Madison, WI), was added into each well. The plate was incubated for 3 h under the same conditions mentioned above, and the absorbance at 490 nm was measured for the determination of cell proliferation."}, "[7]": {"biological_target": "T1, IMP-1 (Serratia marcescens, UniProt P52699)", "T1 construct": "made in house", "T1 sequence (P52699 19-246 limits assumed)": "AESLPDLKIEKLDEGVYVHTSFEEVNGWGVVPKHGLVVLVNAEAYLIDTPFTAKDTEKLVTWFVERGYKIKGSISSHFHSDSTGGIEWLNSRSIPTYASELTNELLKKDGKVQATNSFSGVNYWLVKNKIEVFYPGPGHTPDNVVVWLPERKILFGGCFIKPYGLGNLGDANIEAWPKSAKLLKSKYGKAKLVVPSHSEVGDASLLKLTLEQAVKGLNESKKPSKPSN", "test": "Inhibition of IPM hydrolysis by purified IMP-1, Ki by Lineweaver-Burk plots", "type": "biochemical", "method": "as §2\n(§5) Initial velocities (vo) were measured after varying the concentrations of IPM and inhibitors, and inverse velocities (1/vo) were plotted against inverse IPM concentrations […]. Lineweaver-Burk plots were constructed to obtain the inhibition constant (Ki) with the competitive inhibition model using the SigmaPlot 13 suite (Hulinks)."}, "[8]": {"system": "NDM-type MBL-producing Enterobacteriaceae", "test": "Susceptibility testing, 14 NDM-type MBL-producing Enterobacteriaceae isolates", "type": "cell-based", "details": "10 μg/ml SFC, NDM-producing Enterobacteriaceae", "method": "as §3"}, "[9]": {"system": "IMP-1-producing E. coli NUBL-24", "test": "Time-kill assay", "type": "cell-based, Escherichia coli", "details": "10 μg/ml SFC added to 1 μg/ml MPM, 6 h", "method": "The initial density of E. coli NUBL-24 (blaIMP-1) (MPM MIC, 8 μg/ml) was adjusted to approximately 5 × 10^6 CFU/ml. Either MPM (1 μg/ml) alone or SFC (10 μg/ml) alone or a combination of the two was added to the bacterial solution, and then incubation was performed at 37°C. LB broth containing only bacteria was used as a control. At 0, 2, 4, 6, and 24 h after adding the agents, an aliquot of bacterial culture was removed, diluted, and spotted on LB agar plates to count the viable bacterial cells. The detection limit was set at 200 CFU/ml."}, "[10]": {"biological_target": "T2, OXA-48 (Klebsiella pneumoniae, UniProt Q6XEC0)", "T2 construct": "made in house; host or cells: E. coli BL21(DE3)pLysS", "T2 sequence (Q6XEC0 23-265, looked up, species assumed)": "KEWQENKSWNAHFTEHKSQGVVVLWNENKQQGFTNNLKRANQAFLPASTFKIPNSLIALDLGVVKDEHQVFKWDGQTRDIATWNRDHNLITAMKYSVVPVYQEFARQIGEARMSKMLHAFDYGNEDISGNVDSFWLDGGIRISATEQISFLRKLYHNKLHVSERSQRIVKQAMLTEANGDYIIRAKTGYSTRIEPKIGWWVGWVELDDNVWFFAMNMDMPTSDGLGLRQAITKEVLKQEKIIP", "test": "Serine β-lactamase inhibition, nitrocefin hydrolysis by OXA-48", "type": "biochemical", "details": "nitrocefin 100 μM", "method": "as §1"}, "[11]": {"system": "E. coli DH5α/pBC-VIM-2", "test": "Susceptibility and checkerboard testing, VIM-2-producing E. coli", "type": "cell-based, Escherichia coli", "details": "for MIC: Escherichia coli", "method": "as §3, §4"}, "[12]": {"system": "E. coli BL21(DE3)/pET-SPM-1", "test": "Susceptibility testing, SPM-1-producing E. coli", "type": "cell-based", "details": "Escherichia coli", "method": "as §3"}, "[13]": {"biological_target": "T3, NDM-1 (Klebsiella pneumoniae, UniProt C7C422)", "T3 construct": "made in house", "T3 sequence (C7C422 29-270 limits assumed)": "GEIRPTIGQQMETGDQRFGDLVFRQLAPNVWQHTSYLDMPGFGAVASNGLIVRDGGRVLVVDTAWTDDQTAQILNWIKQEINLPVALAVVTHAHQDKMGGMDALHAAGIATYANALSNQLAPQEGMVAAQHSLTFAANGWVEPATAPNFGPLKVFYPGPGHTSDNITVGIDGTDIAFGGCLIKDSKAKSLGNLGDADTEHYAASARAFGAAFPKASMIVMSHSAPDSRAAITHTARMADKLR", "test": "Inhibition of IPM hydrolysis by purified NDM-1, Ki by Lineweaver-Burk plots", "type": "biochemical", "details": "IPM as substrate, competitive model, mean of three replicates; read-out: Inhibition constant Ki NDM-1", "method": "as §2, §5"}, "[14]": {"system": "P. aeruginosa PAO1/pME-NDM-1", "test": "Susceptibility testing, NDM-1-producing P. aeruginosa PAO1", "type": "cell-based", "details": "Pseudomonas aeruginosa", "method": "as §3"}, "[15]": {"details": "read-out: MIC of MPM + inhibitor (8 μg/ml)"}, "[16]": {"details": "read-out: MIC of MPM + inhibitor (32 μg/ml)"}}, "note": "“Also recorded” adds a separate entry of the source. Read-outs that look alike come from different tables or passages of the source.", "data": [{"smiles": "Cc1oc(C)c(S(N)(=O)=O)c1C(=O)O", "note": "[SFC, 2,5-dimethyl-4-sulfamoylfuran-3-carboxylic acid]", "values": [{"measurement": "Inhibitory effect against TLA-3 (class A)", "setting": "[1]", "result": "nonexistent or insufficient"}, {"measurement": "Inhibition of IPM hydrolyzing activity of SFH-1", "setting": "[2]", "result": "did not inhibit"}, {"measurement": "Growth inhibition by SFC alone", "setting": "[3]", "result": "did not show growth inhibition"}, {"measurement": "Drop of MPM MIC50", "setting": "[4]; 10 μg/ml SFC", "result": 2, "unit": "fold"}, {"measurement": "Drop of MPM MIC50", "setting": "[4]; 50 μg/ml SFC", "result": 8, "unit": "fold"}, {"measurement": "MIC meropenem + 2 μg/mL compound", "setting": "[5]; E. coli DH5α/pBC-NDM-1", "result": 16, "unit": "µg/mL"}, {"measurement": "Reduction in MPM MIC", "setting": "[5]; E. coli DH5α/pBC-NDM-1, 2 μg/ml compound", "result": 4, "unit": "fold"}, {"measurement": "MIC", "setting": "[5]; [15]", "result": 2, "unit": "µg/mL"}, {"measurement": "MIC", "setting": "[5]; [16]", "result": "≤ 0.25", "unit": "µg/mL"}, {"measurement": "FIC index", "setting": "[5]; checkerboard with MPM, E. coli DH5α/pBC-NDM-1, lowest value", "result": 0.09}, {"measurement": "Toxicity in HeLa cells", "setting": "[6]", "result": "very low toxicity; also recorded: low toxicity"}, {"measurement": "Ki", "setting": "[7]", "result": 0.22, "unit": "µM"}, {"measurement": "Reduction of MPM MIC50", "setting": "[8]", "result": 8, "unit": "fold"}, {"measurement": "Reduction of bacterial population", "setting": "[9]", "result": "more than 1,000 fold"}, {"measurement": "Inhibitory effect against OXA-48 (class D)", "setting": "[10]", "result": "nonexistent or insufficient"}, {"measurement": "MIC ceftazidime + 2 μg/mL compound", "setting": "[11]; E. coli DH5α/pBC-VIM-2", "result": 16, "unit": "µg/mL"}, {"measurement": "Reduction in CAZ MIC", "setting": "[11]; E. coli DH5α/pBC-VIM-2, 2 μg/ml compound", "result": "no reduction"}, {"measurement": "MIC", "setting": "[11]; read-out: MIC of CAZ + inhibitor (8 μg/ml)", "result": 4, "unit": "µg/mL"}, {"measurement": "MIC", "setting": "[11]; read-out: MIC of CAZ + inhibitor (32 μg/ml)", "result": 2, "unit": "µg/mL"}, {"measurement": "FIC index", "setting": "[11]; checkerboard with CAZ, E. coli DH5α/pBC-VIM-2, lowest value", "result": 0.31}, {"measurement": "MIC", "setting": "[12]; [15]", "result": 0.063, "unit": "µg/mL"}, {"measurement": "MIC", "setting": "[12]; [16]", "result": 0.063, "unit": "µg/mL"}, {"measurement": "Ki", "setting": "[13]", "result": 9.82, "unit": "µM"}, {"measurement": "MIC", "setting": "[14]; PAO1, read-out: MIC of MPM + inhibitor (10 μg/ml)", "result": 4, "unit": "µg/mL"}, {"measurement": "MIC", "setting": "[14]; PAO1, read-out: MIC of MPM + inhibitor (50 μg/ml)", "result": 4, "unit": "µg/mL"}]}]}
